Source: US11466007B2, “Substituted lactams showing serotonin 5-HT receptor activity” (Sumitomo Pharma Co., Ltd., priority 2018, dated 2022)

Experiment: Test 4: metabolic stability test in human hepatic microsome
Type: in vitro ADME
Conditions: 0.1 mg/mL microsome, 0.1 μmol/L compound, NADPH, 37° C., 30 minutes
Description: Test 4: Metabolic Stability Test in Human Hepatic Microsome
The stability of the present compound in human hepatic microsome metabolism was evaluated as mentioned below. Human hepatic microsome was obtained from Xenontech. Human hepatic microsome, NADPH, and each test compound were mixed in 25 mmol/L phosphate buffer solution (pH 7.4) to reach the following concentrations as shown below, and the mixture was incubated at 37° C. for 30 minutes. • Human hepatic microsome: 0.1 mg/mL • NAPDH: 3.2 mmol/L • Test compound: 0.1 μmol/L
The residual ratio of the test compound in each sample after 30 minutes was measured by LC-MS, and the metabolic stability in human hepatic microsome was calculated from the following formula. Metabolic stability in human hepatic microsome (mL/min/mg protein)=−LN(residual ratio)/30/0.1

| Metabolic stability in human hepatic microsome | SMILES |
| --- | --- |
| 0.017 mL/min/mg protein | Cc1c2c(nn1C)CCN(CCN1CCC(c3noc4ccccc34)CC1)C2=O [Example 37, 5-{2-[4-(1,2-Benzoisoxazol-3-yl)piperidin-1-yl]ethyl}-2,3-dimethyl-2,5,6,7-tetrahydro-4H-pyrazolo[4,3-c]pyridin-4-one] |
| <0.01 mL/min/mg protein | Cn1cnc2c1CCN(CCN1CCC(c3noc4ccccc34)CC1)C2=O [Example 16] |
| 0.070 mL/min/mg protein | Cc1ncc2c(n1)CCN(CCN1CCN(c3nsc4ccccc34)CC1)C2=O [Example 90] |
| 0.100 mL/min/mg protein | O=C1c2cccnc2CCN1CCN1CCN(c2nsc3ccccc23)CC1 [Example 9] |
| <0.01 mL/min/mg protein | Cn1cc2c(n1)CCN(CCN1CCC(c3noc4ccccc34)CC1)C2=O [Example 17] |
| <0.05 mL/min/mg protein | CC(C)n1ncc2c1CCN(CCN1CCC(c3noc4ccccc34)CC1)C2=O [Example 159] |
| 0.063 mL/min/mg protein | Cn1cc2c(n1)C(=O)N(CCN1CCN(c3nsc4ccccc34)CC1)CCC2 [Example 49] |
| <0.05 mL/min/mg protein | Cc1cc2c(n1C)CCCN(CCN1CCC(c3noc4ccccc34)CC1)C2=O [Example 166] |
| <0.01 mL/min/mg protein | Cn1cc2c(n1)CCCN(CCN1CCC(c3noc4ccccc34)CC1)C2=O [Example 41] |
| <0.01 mL/min/mg protein | Cn1ncc2c1CCN(CCN1CCN(c3nsc4ccccc34)CC1)C2=O [Example 63] |
| 0.065 mL/min/mg protein | Cc1nn(C)c2c1C(=O)N(CCN1CCN(c3noc4ccccc34)CC1)CCC2 [Example 92] |
| 0.041 mL/min/mg protein | O=C1c2ncccc2CCN1CCN1CCN(c2nsc3ccccc23)CC1 [Example 7] |
| 0.038 mL/min/mg protein | Cn1cc2c(n1)C(=O)N(CCN1CCN(c3nsc4ccccc34)CC1)CC2 [Example 50] |
| <0.05 mL/min/mg protein | Cc1ccc2c(n1)C(=O)N(CCN1CCN(c3noc4ccccc34)CC1)CC2 [Example 183] |
| 0.032 mL/min/mg protein | Cc1nc2c(o1)C(=O)N(CCN1CCN(c3nsc4ccccc34)CC1)CC2 [Example 45] |
| 0.1 mL/min/mg protein | O=c1c2cnccc2ccn1CCN1CCN(c2noc3ccccc23)CC1 [Example 116] |
| <0.05 mL/min/mg protein | Cc1nn(C)c2c1C(=O)N(CCN1CCC(c3noc4ccccc34)CC1)CCC2 [Example 91] |
| <0.05 mL/min/mg protein | Cn1ncc2c1CCN(CCN1CCN(c3noc4ccccc34)CC1)C2=O [Example 131] |
| <0.05 mL/min/mg protein | COc1ncc2c(n1)CCN(CCN1CCC(c3noc4ccccc34)CC1)C2=O [Example 176] |
| 0.074 mL/min/mg protein | Cc1nc2c(o1)CCN(CCN1CCN(c3nsc4ccccc34)CC1)C2=O [Example 51] |
| <0.05 mL/min/mg protein | Cc1nc(C)c2c(n1)CCN(CCN1CCC(c3noc4ccccc34)CC1)C2=O [Example 139] |
| <0.05 mL/min/mg protein | O=C1c2cnn(C3CC3)c2CCN1CCN1CCC(c2noc3ccccc23)CC1 [Example 161] |

| Metabolic stability in human hepatic microsome | SMILES |
| --- | --- |
| 0.063 mL/min/mg protein | Cn1ncc2c1CCC(CCN1CCN(c3nsc4ccccc34)CC1)C2=O (centres unmarked) [Example 29] |
| 0.016 mL/min/mg protein | Cc1nc2c(o1)CCN(CCN1CCC(c3noc4ccccc34)CC1)C2=O [Example 39] |
| 0.056 mL/min/mg protein | O=C1c2oc(C3CC3)nc2CCN1CCN1CCC(c2noc3ccccc23)CC1 [Example 68] |
| <0.05 mL/min/mg protein | O=C1c2cccnc2CCN1CCN1CCN(c2noc3ccccc23)CC1 [Example 153, 6-{2-[4-(1,2-Benzoisoxazol-3-yl)piperazin-1-yl]ethyl}-7,8-dihydro-1,6-naphthyridin-5(6H)-one] |
| <0.05 mL/min/mg protein | O=C1c2nc(Cl)ccc2CCN1CCN1CCN(c2noc3ccccc23)CC1 [Example 144] |
| <0.05 mL/min/mg protein | Cn1cnc2c1C(=O)N(CCN1CCC(c3noc4ccccc34)CC1)CCC2 [Example 134] |
| 0.055 mL/min/mg protein | CC1CN(CCN2CCC(c3noc4ccccc34)CC2)C(=O)c2ncccc21 (centres unmarked) [Example 15] |
| <0.05 mL/min/mg protein | Cc1nc2c(o1)C(=O)N(CCN1CCC(c3noc4ccccc34)CC1)CCC2 [Example 154] |
| 0.013 mL/min/mg protein | O=C1c2cncnc2CCN1CCN1CCC(c2noc3ccccc23)CC1 [Example 57] |
| <0.01 mL/min/mg protein | O=C1c2ncccc2CCN1CCN1CCC(c2nsc3ccccc23)CC1 [Example 26] |
| 0.13 mL/min/mg protein | O=C1c2cnn(C3CC3)c2CCN1CCN1CCN(c2nsc3ccccc23)CC1 [Example 160] |
| 0.04 mL/min/mg protein | Cn1ncc2c1CCCN(CCN1CCN(c3nsc4ccccc34)CC1)C2=O [Example 44] |
| 0.02 mL/min/mg protein | O=c1c2ncccc2ccn1CCN1CCC(c2noc3cc(F)ccc23)CC1 [Example 12] |
| <0.05 mL/min/mg protein | O=c1c2ncccc2ccn1CCN1CCN(c2noc3ccccc23)CC1 [Example 117] |
| <0.05 mL/min/mg protein | Cc1cc2c(cn1)C(=O)N(CCN1CCC(c3noc4ccccc34)CC1)CC2 [Example 135] |
| <0.05 mL/min/mg protein | O=C1c2ncccc2CCN1CCN1CCN(c2noc3cc(F)ccc23)CC1 [Example 123] |
| 0.100 mL/min/mg protein | Cn1cc2c(n1)CCCN(CCN1CCN(c3nsc4ccccc34)CC1)C2=O [Example 42] |
| <0.01 mL/min/mg protein | COc1cc2c(cn1)C(=O)N(CCN1CCC(c3noc4ccccc34)CC1)CC2 [Example 14] |
| 0.084 mL/min/mg protein | O=c1c2cncnc2ccn1CCN1CCC(c2noc3ccccc23)CC1 [Example 129] |
| <0.01 mL/min/mg protein | Cn1ccc2c1CCCN(CCN1CCN(c3noc4ccccc34)CC1)C2=O [Example 109, 5-{2-[4-(1,2-Benzoisoxazol-3-yl)piperazin-1-yl]ethyl}-1-methyl-5,6,7,8-tetrahydropyrrolo[3,2-c]azepin-4 (H)-one] |
| <0.05 mL/min/mg protein | O=C1c2nc(F)ccc2CCN1CCN1CCC(c2noc3ccccc23)CC1 [Example 188, 7-{2-[4-(1,2-Benzoisoxazol-3-yl)piperidin-1-yl]ethyl}-2-fluoro-6,7-dihydro-1,7-naphthyridin-8(5H)-one] |

| SMILES | Metabolic stability in human hepatic microsome |
| --- | --- |
| Cc1ncc2c(=O)n(CCN3CCC(c4noc5ccccc45)CC3)ccc2n1 [Example 194, 6-{2-[4-(1,2-Benzoisoxazol-3-yl)piperidin-1-yl]ethyl}-2-methylpyrido[4,3-d]pyrimidin-5(6H)-one] | <0.05 mL/min/mg protein |
